{
  "source": "patent US20140330022A1",
  "about": "“COLLATERAL BLOOD CIRCULATION DEVELOPMENT PROMOTER” (KOWA COMPANY, LTD., priority 2012, published 2014)",
  "key": {"[1]": {"tested_on": "human aortic endothelial cells (HAEC)", "assay": "Proliferative activity of HAEC (WST-8 assay)", "assay_type": "cell-based", "conditions": "1 μM and 3 μM, 48 hours incubation, vs solvent control, n=3 (FIG. 1)", "description": "(§1) The Compound 1 was produced according to the method described in WO97/012869 and dissolved in dimethyl sulfoxide (solvent). As for cells used in the experiment, human aortic endothelial cells (HAEC (Lonza Group Ltd.)) and normal human umbilical vein endothelial cells (HUVEC; American Type Culture Collection) were used.\nHAEC were cultured using an endothelial cell growth medium (EGM-2 bullet kit; Lonza) containing 10% fetal bovine serum (FBS). The proliferative activity of HAEC was assessed by a WST-8 assay using a Cell Counting Kit (Dojindo Laboratories). In a 96-well plate, HAEC were seeded at a concentration of 5000 cells per well, and incubated for 24 hours. Subsequently, the medium in each well was exchanged to 100 μL of fresh culture medium containing various concentrations of the Compound 1 or solvent alone. After the 48 hours of subsequent incubation, 10 μL of WST-8 reagent was added to each well. The plate was incubated another 4 hours, and then the absorbance at 450 nm was measured with an absorbance plate reader."}, "[2]": {"tested_on": "normal human umbilical vein endothelial cells (HUVEC)", "assay": "HUVEC tube formation on Matrigel matrix", "assay_type": "cell-based", "description": "as §1\nHUVEC were cultured using an endothelial cell growth medium (Endothelial Cell Growth Medium: Cell Applications) containing 10% FBS. In a 96-well plate coated with Matrigel matrix, HUVEC were seeded at a concentration of 1.5×10^4 cells per well, and incubated in a 200 μL of culture medium containing various concentrations of the […] or solvent alone for 18 hours. After that, total tube length in a field (Total tube length) was calculated by image analysis using a light microscope (E-400; Nikon Corp.)."}, "[3]": {"tested_on": "rat femoral artery occlusion model", "assay": "Hindlimb muscle blood flow in rat hindlimb ischemia model by ligation of femoral artery (colored microspheres)", "assay_type": "in vivo", "conditions": "30 mg/kg oral twice daily for 27 days", "description": "(§2) The Compound 1 was produced according to the method described in WO97/012869 and was used by dissolving in dimethyl sulfoxide or suspending in 1% (W/W) of hydroxypropyl methyl cellulose aqueous solution. As for animals, 7 to 9 week-old Sprague-Dawley (Slc:SD) male rats were used. As for anesthesia for operation, pentobarbital.sodium was intraperitoneally administered at a dose of 50 mg/kg.\n(§3) Bilateral femoral arteries were exposed and the arteries were ligated using a suture under anesthesia. For histological analysis, the Compound 1 or base alone was orally administered twice daily for 27 days starting on the day of operation. On Day 28, the left gastrocnemius muscle was extirpated and frozen in a Tissue-Tek O.C.T. compound (Sakura Finetech Japan Co., Ltd.). Tissue sections at a thickness of 10 μm were prepared by slicing the frozen tissue sample with a freezing microtome, and dried in an air and fixed with acetone. […] The positive staining with α-SMA was identified by an examination using a light microscope, and the luminal area of intramuscular artery was quantified by image analysis (Win ROOF; Mitani Co., Ltd.). The blood flow volume on Day 28 in the hindlimb muscle in this model was determined by measuring at two points, in other words before and after exercise, using Dye-Trak VII+ microspheres (Triton Technology, Inc.).\nIn particular detail, initially a pentobarbital.sodium solution was intraperitoneally administered to the rat at a dose of 50 mg/kg to anesthetize. […] Wave profile of blood pressure that is characteristic to the left ventricular was detected to confirm whether the catheter has reached to the left ventricular. The temporal pulse pressure and average blood pressure were measured with a sphygmomanometer via the blood pressure transducer. […]"}, "[4]": {"tested_on": "rat femoral artery occlusion model", "assay": "Luminal area of intramuscular artery in gastrocnemius muscle, rat femoral artery ligation model (α-SMA staining)", "assay_type": "in vivo", "conditions": "30 mg/kg oral twice daily for 27 days, mean±standard error, n=16, ligated control 3315±416, sham 14642±1062, P<0.05", "description": "as §2, §3"}, "[5]": {"tested_on": "excised rat femoral artery contracted with KCl", "assay": "Vasodilation of excised rat femoral artery in Magnus tube", "conditions": "0.1 μmol/L to 30 μmol/L, in vitro, n=3 (FIG. 9)", "description": "The femoral artery vessel (3 mm in width) excised from the rat was placed to a Magnus tube filled with a Krebs-Henseleit solution maintained at 37° C., to which a mixed gas of 95% O2 and 5% CO2 was continuously injected by reference to the method by Abiru et al. (Abiru T, et al., Eur J. Pharmacol. 1995; 281:9-15.). The isometric tension of the vessel was measured with a tension transducer, and the result was recorded with a thermal printer. The vessel was adjusted to a resting tension of 0.75 g. The vessel was contracted by 60 mmol/L (rats) of potassium chloride, and then the Compound 1 or a base was continuously injected to the Magnus tube. At the end of each experiment, […] of papaverine was added in order to determine the maximum relaxation."}, "[6]": {"assay": "Pharmacokinetics study in the rat, single oral dose", "assay_type": "in vivo", "conditions": "non-fasting, serum, n=3", "description": "The concentration of the Compound 1 in the serum was detected with a high-performance liquid chromatography system attached with a fluorescence detector. The maximum plasma concentration (Cmax) and time to the maximum plasma concentration (Tmax) were determined from the measurement of the drug concentration in the serum, half-life (T1/2), and AUC. The time curve was computed by a least squares method and a trapezoidal method, respectively."}, "[7]": {"tested_on": "human aortic endothelial cells (HAEC)", "conditions": "HAEC in vitro; eNOS phosphorylation via cAMP/PKA and PI3K/Akt, increased NO production (Non-Patent Document 6); cited from earlier work"}, "[8]": {"tested_on": "lower-extremity ischemic mouse", "conditions": "long-term administration (Non-Patent Document 7); cited from earlier work"}, "[9]": {"conditions": "Sprague-Dawley (Slc:SD), single oral 3 mg/kg"}, "[10]": {"conditions": "Sprague-Dawley (Slc:SD), single oral 10 mg/kg"}, "[11]": {"conditions": "Sprague-Dawley (Slc:SD), single oral 100 mg/kg"}, "[12]": {"conditions": "Sprague-Dawley, single oral 10 mg/kg"}, "[13]": {"conditions": "Sprague-Dawley, single oral 30 mg/kg"}},
  "data": [
    {"smiles": "O=C(NCCCOc1ccc2[nH]c(=O)ccc2c1)N(C1CC1)[C@@H]1CCCC[C@H]1O", "note": "[Compound 1, (−)-6-[3-[3-cyclopropyl-3-[(1R,2R)-2-hydroxycyclohexyl]ureido]propoxy]-2(1H)-quinolinone]", "values": [
      {"measurement": "effect on the proliferative activity of HAEC", "setting": "[1]", "result": "no effect"},
      {"measurement": "angiogenesis in photographs of HUVEC tube formation", "setting": "[2]; 0.01, 0.1, 1, 10, 100 μM (FIG. 2)", "result": "no angiogenesis could be confirmed"},
      {"measurement": "HUVEC tube formation, ratio of Total tube length with respect to the control", "setting": "[2]; 0.01 to 100 μM, 18 hours, n=2 (FIG. 3)", "result": "no significant difference with respect to the control"},
      {"measurement": "angiogenic activity via direct action to endothelial cells", "setting": "[2]; conclusion from HAEC proliferation and HUVEC tube formation", "result": "does not have an angiogenic activity"},
      {"measurement": "blood flow in the gastrocnemius muscle after exercise", "setting": "[3]; Day 28, after exercise, mean±standard error, n=20, control 0.561±0.034, P<0.001", "result": "0.818 ± 0.058", "unit": "mL/min/g"},
      {"measurement": "blood flow in anterior tibialis muscle after exercise", "setting": "[3]; Day 28, after exercise, mean±standard error, n=20, control 0.697±0.039, P<0.001", "result": "0.992 ± 0.060", "unit": "mL/min/g"},
      {"measurement": "hindlimb muscle blood flow before exercise", "setting": "[3]; Day 28, before exercise (at rest), gastrocnemius and anterior tibialis", "result": "no change"},
      {"measurement": "luminal area of the main artery in the gastrocnemius muscle", "setting": "[4]", "result": "7100±824", "unit": "μm^2"},
      {"measurement": "vasodilating effect on ring specimen of excised rat femoral artery", "setting": "[5]", "result": "dose-dependent vasodilating effect"},
      {"measurement": "AUC(0-inf)", "setting": "[6]; [9]", "result": 1.33, "unit": "µM·h"},
      {"measurement": "AUC(0-t)", "setting": "[6]; [9]", "result": 0.83, "unit": "µM·h"},
      {"measurement": "Cmax", "setting": "[6]; [9]", "result": "300 ± 60", "unit": "nM"},
      {"measurement": "Tmax", "setting": "[6]; [9]", "result": 1, "unit": "h"},
      {"measurement": "half-life", "setting": "[6]; [9]", "result": 2.64, "unit": "h"},
      {"measurement": "AUC(0-t)", "setting": "[6]; [10]", "result": 2.38, "unit": "µM·h"},
      {"measurement": "Cmax", "setting": "[6]; [10]", "result": "830 ± 140", "unit": "nM"},
      {"measurement": "Cmax", "setting": "[6]; Sprague-Dawley (Slc:SD), single oral 30 mg/kg", "result": "4730 ± 280", "unit": "nM"},
      {"measurement": "AUC(0-inf)", "setting": "[6]; [11]", "result": 48.2, "unit": "µM·h"},
      {"measurement": "AUC(0-t)", "setting": "[6]; [11]", "result": 47.1, "unit": "µM·h"},
      {"measurement": "Tmax", "setting": "[6]; [11]", "result": 1, "unit": "h"},
      {"measurement": "half-life", "setting": "[6]; [11]", "result": 2.19, "unit": "h"},
      {"measurement": "AUC(0-inf)", "setting": "[6]; [12]", "result": 2.55, "unit": "µM·h"},
      {"measurement": "Tmax", "setting": "[6]; [12]", "result": 1, "unit": "h"},
      {"measurement": "half-life", "setting": "[6]; [12]", "result": 2, "unit": "h"},
      {"measurement": "AUC(0-inf)", "setting": "[6]; [13]", "result": 14.8, "unit": "µM·h"},
      {"measurement": "AUC(0-t)", "setting": "[6]; [13]", "result": 14.1, "unit": "µM·h"},
      {"measurement": "Tmax", "setting": "[6]; [13]", "result": 2, "unit": "h"},
      {"measurement": "half-life", "setting": "[6]; [13]", "result": 1.61, "unit": "h"},
      {"measurement": "Cmax", "setting": "[6]; Sprague-Dawley, single oral 100 mg/kg", "result": "9760 ± 1440", "unit": "nM"}
    ]},
    {"smiles": "O=C1CCc2cc(OCCCCc3nnnn3C3CCCCC3)ccc2N1", "note": "[cilostazol]", "values": [
      {"measurement": "tubulogenesis of endothelial cells", "setting": "[7]", "result": "promotes tubulogenesis of endothelial cells"},
      {"measurement": "vascular density in lower-extremity muscles", "setting": "[8]", "result": "elevates"}
    ]}
  ]
}
